The test concerns Influenza A virus. The test is described as follows: Anti-viral activity against Influenza A virus amantadine-resistant strain (A/Puerto Rico/8/34) infected in MDCK cells assessed as inhibition of virus cytopathic effect measured after 48 hrs by crystal violet staining based assay. The class given is functional, organism-based. Particulars: A/Puerto Rico/8/34, MDCK. (In general: Cytopathic effects are the visible damage that an infection or toxin causes in cultured cells.)
Turning to `CC(=O)c1cc(C)c(O)c(Cc2[nH]c3ccccc3c2Cc2c(O)c(C)cc(C(C)=O)c2O)c1O`, the 50% inhibitory concentration (IC50) turned out to be 25.5 µM.

Consider `CC(=O)c1cc(C)c(O)c(Cc2[nH]c3ccc(C)cc3c2Cc2c(O)c(C)cc(C(C)=O)c2O)c1O`, for which the IC50 is 20.6 µM.

As to `CC(=O)c1cc(C)c(O)c(Cc2[nH]c3ccc(-c4ccc5ncccc5c4)cc3c2Cc2c(O)c(C)cc(C(C)=O)c2O)c1O`, the IC50 was 18.5 µM.

For `COc1cccc(OC)c1-c1ccc2[nH]c(Cc3c(O)c(C)cc(C(C)=O)c3O)c(Cc3c(O)c(C)cc(C(C)=O)c3O)c2c1`, the IC50 was found to be 21 µM.

For the compound `COc1cccc(OC)c1-c1ccc2c(Cc3c(O)c(C)cc(C(C)=O)c3O)c(Cc3c(O)c(C)cc(C(C)=O)c3O)[nH]c2c1`, the IC50 is 19.5 µM.

Consider `C=CCn1c(Cc2c(O)c(C)cc(C(C)=O)c2O)c(Cc2c(O)c(C)cc(C(C)=O)c2O)c2ccccc21`, for which the IC50 was more than 30 µM.

As for `CC(=O)c1cc(C)c(O)c(Cc2[nH]c3ccc(-c4cc(C(F)(F)F)cc(C(F)(F)F)c4)cc3c2Cc2c(O)c(C)cc(C(C)=O)c2O)c1O`, the IC50 is more than 30 µM.

In the case of `CC(=O)c1cc(C)c(O)c(Cc2[nH]c3ccc(-c4cc(C)cc(C)c4)cc3c2Cc2c(O)c(C)cc(C(C)=O)c2O)c1O`, the half-maximal inhibitory concentration (IC50) turned out to be 13.5 µM.

As for `CC(=O)c1cc(C)c(O)c(Cc2[nH]c3cc(-c4ccc5c(c4)CCO5)ccc3c2Cc2c(O)c(C)cc(C(C)=O)c2O)c1O`, the IC50 is more than 30 µM.

With `COc1ccc2cc(-c3ccc4c(Cc5c(O)c(C)cc(C(C)=O)c5O)c(Cc5c(O)c(C)cc(C(C)=O)c5O)[nH]c4c3)ccc2c1`, the IC50 was found to be 23.3 µM.

`CC(=O)c1cc(C)c(O)c(Cc2c(Cc3c(O)c(C)cc(C(C)=O)c3O)n(Cc3ccc(Cl)cc3)c3ccccc23)c1O`: the IC50 was more than 30 µM.

As for `CC(=O)c1cc(C)c(O)c(Cc2[nH]c3cc(-c4cccc(F)c4)ccc3c2Cc2c(O)c(C)cc(C(C)=O)c2O)c1O`, the IC50 was more than 30 µM.

`CC(=O)c1cc(C)c(O)c(Cc2[nH]c3ccc(-c4ccc(C)cc4)cc3c2Cc2c(O)c(C)cc(C(C)=O)c2O)c1O`: the half-maximal inhibitory concentration (IC50) is 15.5 µM.

`CC(=O)c1cc(C)c(O)c(Cc2[nH]c3cc(-c4cccc(O)c4)ccc3c2Cc2c(O)c(C)cc(C(C)=O)c2O)c1O`: the IC50 was more than 30 µM.

For the compound `COc1cc(-c2ccc3c(Cc4c(O)c(C)cc(C(C)=O)c4O)c(Cc4c(O)c(C)cc(C(C)=O)c4O)[nH]c3c2)cc(OC)c1OC`, the IC50 turned out to be 20.1 µM.

`CC(=O)c1cc(C)c(O)c(Cc2[nH]c3ccc(-c4cccc(O)c4)cc3c2Cc2c(O)c(C)cc(C(C)=O)c2O)c1O`: the 50% inhibitory concentration (IC50) was more than 30 µM.

As to `CC(=O)c1cc(C)c(O)c(Cc2[nH]c3cc(-c4ccc(Cl)cc4)ccc3c2Cc2c(O)c(C)cc(C(C)=O)c2O)c1O`, the IC50 was more than 30 µM.

`CSc1ccc(-c2ccc3[nH]c(Cc4c(O)c(C)cc(C(C)=O)c4O)c(Cc4c(O)c(C)cc(C(C)=O)c4O)c3c2)cc1`: the IC50 turned out to be 17.5 µM.

In the case of `CC(=O)c1cc(C)c(O)c(Cc2[nH]c3ccc(-c4ccccc4F)cc3c2Cc2c(O)c(C)cc(C(C)=O)c2O)c1O`, the half-inhibitory concentration (IC50) is more than 30 µM.

For `COc1ccc(-c2ccc3c(Cc4c(O)c(C)cc(C(C)=O)c4O)c(Cc4c(O)c(C)cc(C(C)=O)c4O)[nH]c3c2)cc1OC`, the half-maximal inhibitory concentration (IC50) is 19.7 µM.

Regarding `CC(=O)c1cc(C)c(O)c(Cc2c(Cc3c(O)c(C)cc(C(C)=O)c3O)n(Cc3ccccc3)c3ccccc23)c1O`, the half-maximal inhibitory concentration (IC50) was more than 30 µM.

On to `CC(=O)c1cc(C)c(O)c(Cc2[nH]c3cc(-c4cc(C(C)(C)C)cc(C(C)(C)C)c4)ccc3c2Cc2c(O)c(C)cc(C(C)=O)c2O)c1O`, for which the IC50 is 26.8 µM.

Regarding `CC(=O)c1cc(C)c(O)c(Cc2[nH]c3ccc(-c4c5ccccc5cc5ccccc45)cc3c2Cc2c(O)c(C)cc(C(C)=O)c2O)c1O`, the IC50 turned out to be 6.7 µM.

As to `CC(=O)c1cc(C)c(O)c(Cc2[nH]c3ccc(Br)cc3c2Cc2c(O)c(C)cc(C(C)=O)c2O)c1O`, the half-maximal inhibitory concentration (IC50) worked out at 25.2 µM.

For `CC(=O)c1cc(C)c(O)c(Cc2[nH]c3ccc(-c4c5ccccc5c(-c5ccccc5)c5ccccc45)cc3c2Cc2c(O)c(C)cc(C(C)=O)c2O)c1O`, the IC50 was more than 30 µM.

Consider `CC(=O)c1cc(C)c(O)c(Cc2[nH]c3cc(-c4ccccc4)ccc3c2Cc2c(O)c(C)cc(C(C)=O)c2O)c1O`, for which the IC50 was found to be 23.4 µM.

`COc1ccc(Cn2c(Cc3c(O)c(C)cc(C(C)=O)c3O)c(Cc3c(O)c(C)cc(C(C)=O)c3O)c3ccccc32)cc1`: the IC50 was more than 30 µM.

In the case of `CC(=O)c1cc(C)c(O)c(Cc2[nH]c3cc(-c4ccc5ccccc5c4)ccc3c2Cc2c(O)c(C)cc(C(C)=O)c2O)c1O`, the IC50 turned out to be 26 µM.

Consider `CC(=O)c1cc(C)c(O)c(Cc2[nH]c3ccc(-c4cc(C(C)(C)C)cc(C(C)(C)C)c4)cc3c2Cc2c(O)c(C)cc(C(C)=O)c2O)c1O`, for which the IC50 was more than 30 µM.

On to `CC(=O)c1cc(C)c(O)c(Cc2[nH]c3cc(-c4ccc(C)cc4)ccc3c2Cc2c(O)c(C)cc(C(C)=O)c2O)c1O`, for which the IC50 was 24.1 µM.

In the case of `CC(=O)c1cc(C)c(O)c(Cc2[nH]c3cc(/C=C/c4ccccc4)ccc3c2Cc2c(O)c(C)cc(C(C)=O)c2O)c1O`, the IC50 is more than 30 µM.

Consider `CC(=O)c1cc(C)c(O)c(Cc2[nH]c3ccc(-c4ccc5ccccc5c4)cc3c2Cc2c(O)c(C)cc(C(C)=O)c2O)c1O`, for which the concentration for half-maximal inhibition (IC50) was determined as 20.7 µM.

Take `CC(=O)c1cc(C)c(O)c(Cc2[nH]c3ccc(-c4ccc5c(c4)CCO5)cc3c2Cc2c(O)c(C)cc(C(C)=O)c2O)c1O`: the IC50 is more than 30 µM.

Take `CC(=O)c1cc(C)c(O)c(Cc2[nH]c3cc(-c4ccc5cccnc5c4)ccc3c2Cc2c(O)c(C)cc(C(C)=O)c2O)c1O`: the IC50 was more than 30 µM.

As to `CC(=O)c1cc(C)c(O)c(Cc2[nH]c3cc(-c4cc(C(F)(F)F)cc(C(F)(F)F)c4)ccc3c2Cc2c(O)c(C)cc(C(C)=O)c2O)c1O`, the IC50 was more than 30 µM.

For the compound `COc1ccc(-c2ccc3[nH]c(Cc4c(O)c(C)cc(C(C)=O)c4O)c(Cc4c(O)c(C)cc(C(C)=O)c4O)c3c2)cc1`, the IC50 came out at 16.3 µM.

For `CC(=O)c1cc(C)c(O)c(Cc2[nH]c3cc(-c4ccsc4)ccc3c2Cc2c(O)c(C)cc(C(C)=O)c2O)c1O`, the half-inhibitory concentration (IC50) was more than 30 µM.

As to `COc1ccc2[nH]c(Cc3c(O)c(C)cc(C(C)=O)c3O)c(Cc3c(O)c(C)cc(C(C)=O)c3O)c2c1`, the IC50 was determined as 15.9 µM.

Turning to `CC(=O)c1cc(C)c(O)c(Cc2[nH]c3ccc(-c4ccc(C(F)(F)F)cc4)cc3c2Cc2c(O)c(C)cc(C(C)=O)c2O)c1O`, the concentration for half-maximal inhibition (IC50) worked out at 21.9 µM.

As for `CC(=O)c1cc(C)c(O)c(Cc2c(Cc3c(O)c(C)cc(C(C)=O)c3O)n(N)c3ccccc23)c1O`, the IC50 was more than 30 µM.

Consider `CC(=O)c1cc(C)c(O)c(Cc2[nH]c3cc(-c4ccc(F)cc4)ccc3c2Cc2c(O)c(C)cc(C(C)=O)c2O)c1O`, for which the IC50 was 20.6 µM.

For the compound `CC(=O)c1cc(C)c(O)c(Cc2[nH]c3ccc(-c4csc5ccccc45)cc3c2Cc2c(O)c(C)cc(C(C)=O)c2O)c1O`, the IC50 came out at 23.4 µM.

In the case of `CC(=O)c1cc(C)c(O)c(Cc2[nH]c3cc(-c4c5ccccc5cc5ccccc45)ccc3c2Cc2c(O)c(C)cc(C(C)=O)c2O)c1O`, the 50% inhibitory concentration (IC50) came out at 8.3 µM.

As to `CSc1ccc(-c2ccc3c(Cc4c(O)c(C)cc(C(C)=O)c4O)c(Cc4c(O)c(C)cc(C(C)=O)c4O)[nH]c3c2)cc1`, the IC50 came out at 9.1 µM.

With `CC(=O)c1cc(C)c(O)c(Cc2[nH]c3cc(-c4ccc5c(c4)OCCO5)ccc3c2Cc2c(O)c(C)cc(C(C)=O)c2O)c1O`, the half-inhibitory concentration (IC50) was 9.1 µM.

As to `CC(=O)c1cc(C)c(O)c(Cc2[nH]c3cc(-c4ccccc4F)ccc3c2Cc2c(O)c(C)cc(C(C)=O)c2O)c1O`, the IC50 was more than 30 µM.

In the case of `COc1ccc2cc(-c3ccc4[nH]c(Cc5c(O)c(C)cc(C(C)=O)c5O)c(Cc5c(O)c(C)cc(C(C)=O)c5O)c4c3)ccc2c1`, the IC50 was found to be 21.2 µM.

As to `COc1ccc(-c2ccc3[nH]c(Cc4c(O)c(C)cc(C(C)=O)c4O)c(Cc4c(O)c(C)cc(C(C)=O)c4O)c3c2)cc1OC`, the IC50 worked out at 18.1 µM.

As to `CC(=O)c1cc(C)c(O)c(Cc2[nH]c3ccc(Cl)cc3c2Cc2c(O)c(C)cc(C(C)=O)c2O)c1O`, the IC50 is more than 30 µM.

As for `CC(=O)c1cc(C)c(O)c(Cc2[nH]c3ccc(-c4ccc(Cl)cc4)cc3c2Cc2c(O)c(C)cc(C(C)=O)c2O)c1O`, the IC50 turned out to be 27 µM.

Take `CC(=O)c1cc(C)c(O)c(Cc2[nH]c3cc(C)ccc3c2Cc2c(O)c(C)cc(C(C)=O)c2O)c1O`: the 50% inhibitory concentration (IC50) was 15.1 µM.

For the compound `CC(=O)c1cc(C)c(O)c(Cc2[nH]c3cc(-c4csc5ccccc45)ccc3c2Cc2c(O)c(C)cc(C(C)=O)c2O)c1O`, the IC50 was determined as 20.9 µM.

As for `CC(=O)c1cc(C)c(O)c(Cc2[nH]c3ccc(-c4cccc(F)c4)cc3c2Cc2c(O)c(C)cc(C(C)=O)c2O)c1O`, the IC50 is more than 30 µM.

Take `COc1ccc(-c2ccc3c(Cc4c(O)c(C)cc(C(C)=O)c4O)c(Cc4c(O)c(C)cc(C(C)=O)c4O)[nH]c3c2)cc1`: the IC50 was found to be 8.7 µM.

For the compound `COc1cc(-c2ccc3[nH]c(Cc4c(O)c(C)cc(C(C)=O)c4O)c(Cc4c(O)c(C)cc(C(C)=O)c4O)c3c2)cc(OC)c1OC`, the IC50 was 8 µM.

For the compound `CC(=O)c1cc(C)c(O)c(Cc2[nH]c3ccc(F)cc3c2Cc2c(O)c(C)cc(C(C)=O)c2O)c1O`, the 50% inhibitory concentration (IC50) is more than 30 µM.

`CC(=O)c1cc(C)c(O)c(Cc2[nH]c3ccc(-c4ccc(F)cc4)cc3c2Cc2c(O)c(C)cc(C(C)=O)c2O)c1O`: the IC50 was more than 30 µM.

For the compound `CC(=O)c1cc(C)c(O)c(Cc2[nH]c3ccc(-c4ccc5c(c4)OCCO5)cc3c2Cc2c(O)c(C)cc(C(C)=O)c2O)c1O`, the IC50 came to 13 µM.

Regarding `CC(=O)c1cc(C)c(O)c(Cc2[nH]c3ccc(-c4ccsc4)cc3c2Cc2c(O)c(C)cc(C(C)=O)c2O)c1O`, the half-maximal inhibitory concentration (IC50) is more than 30 µM.

Take `CC(=O)c1cc(C)c(O)c(Cc2[nH]c3ccc(/C=C/c4ccccc4)cc3c2Cc2c(O)c(C)cc(C(C)=O)c2O)c1O`: the IC50 is more than 30 µM.

`CC(=O)c1cc(C)c(O)c(Cc2c(Cc3c(O)c(C)cc(C(C)=O)c3O)n(Cc3ccc(F)cc3)c3ccccc23)c1O`: the concentration for half-maximal inhibition (IC50) is more than 30 µM.

Regarding `COc1ccc2c(Cc3c(O)c(C)cc(C(C)=O)c3O)c(Cc3c(O)c(C)cc(C(C)=O)c3O)[nH]c2c1`, the IC50 is 12.6 µM.

Consider `CC(=O)c1cc(C)c(O)c(Cc2[nH]c3cc(-c4ccc(C(F)(F)F)cc4)ccc3c2Cc2c(O)c(C)cc(C(C)=O)c2O)c1O`, for which the 50% inhibitory concentration (IC50) was 25 µM.

In the case of `CC(=O)c1cc(C)c(O)c(Cc2[nH]c3ccc(-c4ccccc4)cc3c2Cc2c(O)c(C)cc(C(C)=O)c2O)c1O`, the IC50 stood at 26 µM.

In the case of `CC(=O)c1cc(C)c(O)c(Cc2[nH]c3cc(-c4cc(C)cc(C)c4)ccc3c2Cc2c(O)c(C)cc(C(C)=O)c2O)c1O`, the IC50 came out at 10.1 µM.

A word on the IC50: it is the concentration at which inhibition is half-maximal.

The values are drawn from ChEMBL document CHEMBL5625170, “Design, synthesis, and biological evaluation of novel penindolone derivatives as potential inhibitors of hemagglutinin-mediated membrane fusion” (Eur J Med Chem, 2023).
